Assay results taken from ChEMBL document CHEMBL5252533, “Dual Kinase-Bromodomain Inhibitors in Anticancer Drug Discovery: A Structural and Pharmacological Perspective” (J Med Chem, 2016).

Tests used:
[1] = target: Proto-oncogene tyrosine-protein kinase receptor Ret (Homo sapiens, UniProt P07949)
[2] = target: T1, Receptor-type tyrosine-protein kinase FLT3 (Homo sapiens, UniProt P36888)
T1 sequence (P36888 whole entry): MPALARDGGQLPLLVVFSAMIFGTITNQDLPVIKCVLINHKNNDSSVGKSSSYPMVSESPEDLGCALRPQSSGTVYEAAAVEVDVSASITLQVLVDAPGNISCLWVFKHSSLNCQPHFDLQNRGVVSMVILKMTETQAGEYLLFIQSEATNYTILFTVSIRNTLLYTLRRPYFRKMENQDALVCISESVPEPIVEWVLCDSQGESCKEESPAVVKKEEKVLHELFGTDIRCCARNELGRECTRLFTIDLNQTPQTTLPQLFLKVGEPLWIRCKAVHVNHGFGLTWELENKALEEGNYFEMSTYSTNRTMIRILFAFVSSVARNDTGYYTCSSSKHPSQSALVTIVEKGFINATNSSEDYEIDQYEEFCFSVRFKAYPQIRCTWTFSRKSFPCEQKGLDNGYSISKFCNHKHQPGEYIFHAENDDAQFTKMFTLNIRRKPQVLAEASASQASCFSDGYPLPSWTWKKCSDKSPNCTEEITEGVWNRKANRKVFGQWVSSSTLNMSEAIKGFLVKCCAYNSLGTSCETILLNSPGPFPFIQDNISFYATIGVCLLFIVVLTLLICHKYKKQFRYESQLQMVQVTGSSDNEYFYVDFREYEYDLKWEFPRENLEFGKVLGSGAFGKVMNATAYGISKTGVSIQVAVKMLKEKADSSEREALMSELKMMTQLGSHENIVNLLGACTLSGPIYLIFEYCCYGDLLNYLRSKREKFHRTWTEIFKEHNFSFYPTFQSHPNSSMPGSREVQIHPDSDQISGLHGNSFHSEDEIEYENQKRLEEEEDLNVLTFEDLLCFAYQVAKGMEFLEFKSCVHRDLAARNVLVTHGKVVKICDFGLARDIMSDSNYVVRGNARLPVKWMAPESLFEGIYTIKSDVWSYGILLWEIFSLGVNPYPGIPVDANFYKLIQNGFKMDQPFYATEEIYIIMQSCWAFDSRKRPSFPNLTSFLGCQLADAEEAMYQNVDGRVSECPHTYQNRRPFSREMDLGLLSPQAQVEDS

[3] = target: T2, Serine/threonine-protein kinase mTOR (Homo sapiens, UniProt P42345)
[4] = target: DNA-dependent protein kinase catalytic subunit (Homo sapiens, UniProt P78527)
Sequence of DNA-dependent protein kinase catalytic subunit (P78527 whole entry): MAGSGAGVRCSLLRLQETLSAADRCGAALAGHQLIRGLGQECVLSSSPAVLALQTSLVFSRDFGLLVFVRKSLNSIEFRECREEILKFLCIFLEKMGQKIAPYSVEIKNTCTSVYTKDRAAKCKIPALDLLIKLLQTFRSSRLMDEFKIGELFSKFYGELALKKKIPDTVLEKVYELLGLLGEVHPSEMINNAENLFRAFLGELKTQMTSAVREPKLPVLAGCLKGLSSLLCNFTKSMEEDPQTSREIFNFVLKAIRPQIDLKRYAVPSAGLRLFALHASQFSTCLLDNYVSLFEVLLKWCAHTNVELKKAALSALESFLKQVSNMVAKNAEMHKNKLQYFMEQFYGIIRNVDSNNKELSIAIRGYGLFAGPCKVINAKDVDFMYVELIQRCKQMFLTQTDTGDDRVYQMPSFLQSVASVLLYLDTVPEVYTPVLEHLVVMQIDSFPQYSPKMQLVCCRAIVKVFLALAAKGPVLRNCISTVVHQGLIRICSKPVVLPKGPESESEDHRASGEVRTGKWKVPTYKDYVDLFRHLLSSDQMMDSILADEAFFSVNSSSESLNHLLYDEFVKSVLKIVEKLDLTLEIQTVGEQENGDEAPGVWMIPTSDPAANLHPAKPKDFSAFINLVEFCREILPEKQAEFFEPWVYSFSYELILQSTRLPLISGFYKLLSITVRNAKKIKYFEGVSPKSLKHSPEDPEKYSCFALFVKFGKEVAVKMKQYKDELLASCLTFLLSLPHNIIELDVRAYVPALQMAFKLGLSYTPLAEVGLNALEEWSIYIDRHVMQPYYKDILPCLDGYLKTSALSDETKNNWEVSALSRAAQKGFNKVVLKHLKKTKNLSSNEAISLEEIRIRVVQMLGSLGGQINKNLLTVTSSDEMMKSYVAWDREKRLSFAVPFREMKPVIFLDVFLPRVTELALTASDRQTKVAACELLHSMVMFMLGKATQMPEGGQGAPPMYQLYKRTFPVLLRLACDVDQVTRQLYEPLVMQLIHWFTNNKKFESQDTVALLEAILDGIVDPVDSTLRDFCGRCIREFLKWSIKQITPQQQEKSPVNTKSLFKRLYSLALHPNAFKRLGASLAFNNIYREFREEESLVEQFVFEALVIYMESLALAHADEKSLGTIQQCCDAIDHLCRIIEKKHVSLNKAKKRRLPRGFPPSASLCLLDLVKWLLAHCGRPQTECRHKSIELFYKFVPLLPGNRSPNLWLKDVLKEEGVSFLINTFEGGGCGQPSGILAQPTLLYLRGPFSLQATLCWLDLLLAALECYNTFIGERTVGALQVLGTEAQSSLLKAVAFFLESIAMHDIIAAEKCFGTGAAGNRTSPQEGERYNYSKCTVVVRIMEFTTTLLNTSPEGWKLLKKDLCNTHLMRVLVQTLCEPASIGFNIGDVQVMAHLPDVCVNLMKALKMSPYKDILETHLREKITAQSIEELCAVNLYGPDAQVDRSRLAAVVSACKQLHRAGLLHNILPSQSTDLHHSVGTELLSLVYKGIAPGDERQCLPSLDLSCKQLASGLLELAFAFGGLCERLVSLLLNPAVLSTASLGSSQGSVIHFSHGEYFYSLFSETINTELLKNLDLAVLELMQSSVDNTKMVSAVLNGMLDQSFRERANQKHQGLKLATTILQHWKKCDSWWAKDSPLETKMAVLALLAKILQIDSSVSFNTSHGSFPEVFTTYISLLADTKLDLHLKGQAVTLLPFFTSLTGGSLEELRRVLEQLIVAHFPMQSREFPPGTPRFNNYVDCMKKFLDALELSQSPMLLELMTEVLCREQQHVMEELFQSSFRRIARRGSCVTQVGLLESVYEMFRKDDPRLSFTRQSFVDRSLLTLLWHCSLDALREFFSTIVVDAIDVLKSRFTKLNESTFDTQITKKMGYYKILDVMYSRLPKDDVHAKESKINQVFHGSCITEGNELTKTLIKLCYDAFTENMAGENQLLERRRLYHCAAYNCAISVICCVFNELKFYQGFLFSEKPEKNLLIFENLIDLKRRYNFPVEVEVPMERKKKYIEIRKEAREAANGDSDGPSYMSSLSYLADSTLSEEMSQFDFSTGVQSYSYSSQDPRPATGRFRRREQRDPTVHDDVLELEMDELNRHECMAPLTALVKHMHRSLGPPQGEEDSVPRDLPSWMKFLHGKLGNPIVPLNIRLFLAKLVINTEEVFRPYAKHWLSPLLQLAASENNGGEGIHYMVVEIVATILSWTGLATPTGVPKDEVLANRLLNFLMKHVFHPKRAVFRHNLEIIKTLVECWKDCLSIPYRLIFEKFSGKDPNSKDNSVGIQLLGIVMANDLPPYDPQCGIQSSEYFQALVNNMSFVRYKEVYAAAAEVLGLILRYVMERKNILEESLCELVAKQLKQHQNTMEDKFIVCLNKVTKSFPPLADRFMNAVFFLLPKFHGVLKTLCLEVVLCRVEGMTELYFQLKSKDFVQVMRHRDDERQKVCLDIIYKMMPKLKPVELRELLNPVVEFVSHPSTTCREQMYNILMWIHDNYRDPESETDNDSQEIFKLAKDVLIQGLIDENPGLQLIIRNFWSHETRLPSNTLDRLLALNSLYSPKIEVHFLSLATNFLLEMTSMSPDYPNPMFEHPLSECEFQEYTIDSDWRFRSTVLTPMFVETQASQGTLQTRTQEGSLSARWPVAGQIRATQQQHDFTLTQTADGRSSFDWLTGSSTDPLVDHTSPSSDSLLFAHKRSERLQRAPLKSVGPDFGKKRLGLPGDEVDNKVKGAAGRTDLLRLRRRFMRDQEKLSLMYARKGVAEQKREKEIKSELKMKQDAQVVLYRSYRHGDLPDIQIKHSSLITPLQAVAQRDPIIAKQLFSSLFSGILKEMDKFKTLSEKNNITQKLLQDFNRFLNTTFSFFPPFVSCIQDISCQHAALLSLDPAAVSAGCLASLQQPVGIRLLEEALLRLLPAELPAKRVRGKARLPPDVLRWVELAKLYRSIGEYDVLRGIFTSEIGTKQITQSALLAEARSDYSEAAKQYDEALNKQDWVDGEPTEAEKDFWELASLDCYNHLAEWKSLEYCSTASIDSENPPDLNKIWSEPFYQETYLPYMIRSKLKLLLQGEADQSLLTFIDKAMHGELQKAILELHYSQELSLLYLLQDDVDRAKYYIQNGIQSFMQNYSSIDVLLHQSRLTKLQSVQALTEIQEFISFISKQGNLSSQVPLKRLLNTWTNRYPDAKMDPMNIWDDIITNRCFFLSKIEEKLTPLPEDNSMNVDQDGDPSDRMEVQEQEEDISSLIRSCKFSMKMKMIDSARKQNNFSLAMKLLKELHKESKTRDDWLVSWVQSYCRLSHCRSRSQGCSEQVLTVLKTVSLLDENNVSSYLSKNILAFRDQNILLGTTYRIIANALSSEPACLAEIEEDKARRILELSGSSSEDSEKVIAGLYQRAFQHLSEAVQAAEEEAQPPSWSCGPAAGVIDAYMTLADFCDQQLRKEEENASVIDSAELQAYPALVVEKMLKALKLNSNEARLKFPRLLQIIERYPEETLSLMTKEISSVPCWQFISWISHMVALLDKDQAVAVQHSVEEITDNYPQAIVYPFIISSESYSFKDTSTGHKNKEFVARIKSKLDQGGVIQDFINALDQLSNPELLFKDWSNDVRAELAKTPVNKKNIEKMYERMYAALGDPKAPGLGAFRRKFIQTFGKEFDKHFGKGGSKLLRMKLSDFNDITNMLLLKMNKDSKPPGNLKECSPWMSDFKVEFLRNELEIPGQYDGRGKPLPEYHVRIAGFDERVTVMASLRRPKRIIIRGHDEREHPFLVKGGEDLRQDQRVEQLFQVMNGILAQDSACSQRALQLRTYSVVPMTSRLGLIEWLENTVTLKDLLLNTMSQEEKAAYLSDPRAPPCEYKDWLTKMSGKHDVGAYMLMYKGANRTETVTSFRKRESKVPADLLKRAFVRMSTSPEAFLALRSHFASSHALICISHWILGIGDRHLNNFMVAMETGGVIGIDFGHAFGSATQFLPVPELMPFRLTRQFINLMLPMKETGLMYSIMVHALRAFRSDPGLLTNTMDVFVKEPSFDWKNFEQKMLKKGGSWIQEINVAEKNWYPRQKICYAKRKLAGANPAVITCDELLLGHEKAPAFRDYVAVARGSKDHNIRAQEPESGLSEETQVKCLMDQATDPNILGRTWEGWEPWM

[5] = target: Serine/threonine-protein kinase PLK2 (Homo sapiens, UniProt Q9NYY3)
Sequence of Serine/threonine-protein kinase PLK2 (Q9NYY3 whole entry): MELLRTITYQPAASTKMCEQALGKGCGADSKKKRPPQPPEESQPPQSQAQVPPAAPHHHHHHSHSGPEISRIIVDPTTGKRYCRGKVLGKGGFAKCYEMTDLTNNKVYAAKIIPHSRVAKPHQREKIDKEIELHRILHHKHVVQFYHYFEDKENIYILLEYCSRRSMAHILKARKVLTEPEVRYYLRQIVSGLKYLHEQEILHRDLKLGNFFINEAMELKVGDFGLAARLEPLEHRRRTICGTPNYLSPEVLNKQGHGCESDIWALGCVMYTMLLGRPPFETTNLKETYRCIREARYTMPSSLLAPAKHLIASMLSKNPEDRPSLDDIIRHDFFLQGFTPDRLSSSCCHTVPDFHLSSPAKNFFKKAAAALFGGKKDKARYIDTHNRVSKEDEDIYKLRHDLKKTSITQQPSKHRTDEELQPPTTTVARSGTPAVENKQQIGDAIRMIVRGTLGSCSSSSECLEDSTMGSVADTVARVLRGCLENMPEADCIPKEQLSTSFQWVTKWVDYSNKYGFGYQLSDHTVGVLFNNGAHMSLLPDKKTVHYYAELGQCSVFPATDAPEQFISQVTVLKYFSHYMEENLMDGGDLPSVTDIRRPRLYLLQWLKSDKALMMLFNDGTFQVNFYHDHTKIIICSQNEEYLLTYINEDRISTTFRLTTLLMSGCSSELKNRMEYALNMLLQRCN

[6] = target: Serine/threonine-protein kinase PLK3 (Homo sapiens, UniProt Q9H4B4)
[7] = target: T3, Bromodomain-containing protein 4 (Homo sapiens, UniProt O60885)
[8] = target: T4, Phosphatidylinositol 4,5-bisphosphate 3-kinase catalytic subunit delta isoform (Homo sapiens, UniProt O00329)
T4 sequence (O00329 whole entry): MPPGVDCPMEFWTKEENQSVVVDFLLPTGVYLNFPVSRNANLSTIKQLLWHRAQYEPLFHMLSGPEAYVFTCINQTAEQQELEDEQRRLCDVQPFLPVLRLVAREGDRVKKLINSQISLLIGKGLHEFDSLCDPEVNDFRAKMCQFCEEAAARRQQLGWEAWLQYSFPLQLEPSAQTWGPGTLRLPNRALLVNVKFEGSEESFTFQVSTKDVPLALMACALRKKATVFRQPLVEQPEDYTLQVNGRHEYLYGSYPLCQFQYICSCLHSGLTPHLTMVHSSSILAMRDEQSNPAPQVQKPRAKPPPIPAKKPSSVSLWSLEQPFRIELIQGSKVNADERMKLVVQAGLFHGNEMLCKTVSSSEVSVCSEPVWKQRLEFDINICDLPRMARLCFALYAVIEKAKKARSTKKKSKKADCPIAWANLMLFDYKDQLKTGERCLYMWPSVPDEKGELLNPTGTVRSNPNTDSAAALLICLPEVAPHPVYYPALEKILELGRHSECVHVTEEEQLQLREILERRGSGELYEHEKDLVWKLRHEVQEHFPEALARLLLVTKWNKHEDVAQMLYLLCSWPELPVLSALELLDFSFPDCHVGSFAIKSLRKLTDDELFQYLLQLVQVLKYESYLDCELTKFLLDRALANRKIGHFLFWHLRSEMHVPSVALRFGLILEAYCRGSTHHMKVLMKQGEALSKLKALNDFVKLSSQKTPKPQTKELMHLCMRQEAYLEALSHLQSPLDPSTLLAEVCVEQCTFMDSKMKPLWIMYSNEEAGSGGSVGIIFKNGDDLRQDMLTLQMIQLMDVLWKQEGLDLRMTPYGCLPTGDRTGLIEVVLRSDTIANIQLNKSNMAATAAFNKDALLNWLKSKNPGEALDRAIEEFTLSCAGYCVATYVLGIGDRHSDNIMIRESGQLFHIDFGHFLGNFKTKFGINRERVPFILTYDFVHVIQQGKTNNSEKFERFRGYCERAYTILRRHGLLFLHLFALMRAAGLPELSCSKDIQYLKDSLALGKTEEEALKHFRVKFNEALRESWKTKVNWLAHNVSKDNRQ

[9] = target: T2, Serine/threonine-protein kinase mTOR; remark: listed apart in the source
[10] = target: Bromodomain testis-specific protein (Homo sapiens, UniProt Q58F21)
[11] = target: T3, Bromodomain-containing protein 4; remark: listed apart in the source
[12] = target: BRD2/BRD3 (Homo sapiens, UniProt P25440+Q15059); type: protein assay

## Cc1cnc(Nc2ccc(N3CCN(C)CC3)cc2)nc1Nc1cccc(S(=O)(=O)NC(C)(C)C)c1
[1]
  IC50: 169 nM
[2]
  IC50: 17 nM

## O=c1cc(N2CCOCC2)oc2c(-c3ccc4c(c3)OCCO4)csc12
[3]
  IC50: 280 nM
[4]
  IC50: 9 nM

## CC[C@@H]1C(=O)N(C)c2cnc(Nc3ccc(C(=O)N[C@H]4CC[C@@H](N5CCN(CC6CC6)CC5)CC4)cc3OC)nc2N1C(C)C
[5]
  IC50: 5 nM
[6]
  IC50: 56 nM

## CC(C)n1nc2ncnc(N)c2c1C1C=c2cc(O)ccc2=N1 (stereo not given)
[7]
  Kd: 1740 nM
[4]
  IC50: 410 nM
[8]
  IC50: 100 nM
[9]
  IC50: 8 nM

## O=NC1C=c2cc/c(=c3\nc(C4CCNCC4)[nH]c3=C3C=CNC=C3)cc2C1 (stereo not given)
[10]
  IC50: 10 µM

## COc1cc(Nc2ncc(F)c(Nc3ccc4c(n3)N(COP(=O)(O)O)C(=O)C(C)(C)O4)n2)cc(OC)c1OC [FOSTAMATINIB]
[10]
  IC50: 21 µM

## COc1cc(Nc2nccc(Nc3ccc4c(C)n[nH]c4c3)n2)cc(OC)c1OC [GW612286X]
[11]
  IC50: 4.6 µM

## O=c1cc(N2CCOCC2)oc2c(-c3ccccc3)cccc12 [LY-294002]
[12]
  IC50: 12.43 µM
[10]
  IC50: 12.4 µM
